Where “and” joins values, the source holds several entries; their conditions need not be identical. Equal entries are not always repeated.
Key:
Assay type in all cases: functional
[1] = test system: RXF 393; test: Cytotoxicity against Homo sapiens (human) RXF393 cells at 10^-4 to 10^-8 M after 48 hr by SRB assay; conditions: RXF 393, 48 h, read-out: pTGI (converted)
[2] = test system: OVCAR-4; test: Cytotoxicity against Homo sapiens (human) OVCAR4 cells after 48 hr by SRB assay; conditions: OVCAR-4, 48 h
[3] = test system: RXF 393; test: Cytotoxicity against Homo sapiens (human) RXF393 cells after 48 hr by SRB assay
[4] = test system: MDA-MB-435; test: Cytotoxicity against Homo sapiens (human) MDA-MB-435 cells after 48 hr by SRB assay; conditions: MDA-MB-435, 48 h; for CC50: read-out: pLC50 (the source's name) (converted)
[5] = test system: RPMI-8226; test: Cytotoxicity against Homo sapiens (human) RPMI8226 cells after 48 hr by SRB assay; conditions: RPMI-8226, 48 h
[6] = test system: PC-3; test: Cytotoxicity against Homo sapiens (human) PC3 cells assessed as cellular growth at 10^-5 M after 48 hr by SRB assay relative to untreated control
[7] = test system: SK-OV-3; test: Cytotoxicity against Homo sapiens (human) SKOV3 cells after 48 hr by SRB assay
[8] = test system: A549; test: Cytotoxicity against Homo sapiens (human) A549 cells after 48 hr by SRB assay; conditions: A549, 48 h
[9] = test system: MDA-MB-231; test: Cytotoxicity against Homo sapiens (human) MDA-MB-231 cells after 48 hr by SRB assay; conditions: MDA-MB-231, 48 h
[10] = test system: NCI-H322M; test: Cytotoxicity against Homo sapiens (human) NCI-H322M cells at 10^-4 to 10^-8 M after 48 hr by SRB assay; conditions: read-out: pTGI (converted)
[11] = test system: SF-268; test: Cytotoxicity against Homo sapiens (human) SF268 cells after 48 hr by SRB assay; conditions: SF-268, 48 h
[12] = test system: KM12; test: Cytotoxicity against Homo sapiens (human) KM12 cells after 48 hr by SRB assay; conditions: KM12, 48 h
[13] = test system: SN12C; test: Cytotoxicity against Homo sapiens (human) SN12C cells after 48 hr by SRB assay
[14] = test system: NCI-H522; test: Cytotoxicity against Homo sapiens (human) NCI-H522 cells after 48 hr by SRB assay; conditions: NCI-H522, 48 h; for CC50: read-out: pLC50 (the source's name) (converted)
[15] = test system: 786-0; test: Cytotoxicity against Homo sapiens (human) 786-0 cells after 48 hr by SRB assay; conditions: 786-0, 48 h
[16] = test system: OVCAR-8; test: Cytotoxicity against Homo sapiens (human) OVCAR8 cells after 48 hr by SRB assay; conditions: OVCAR-8, 48 h
[17] = test system: Malme-3M; test: Cytotoxicity against Homo sapiens (human) MALME-3M cells after 48 hr by SRB assay; conditions: for CC50: read-out: pLC50 (the source's name) (converted)
[18] = test system: HCT-15; test: Cytotoxicity against Homo sapiens (human) HCT15 cells after 48 hr by SRB assay; conditions: HCT-15, 48 h
[19] = test system: NCI-H522; test: Cytotoxicity against Homo sapiens (human) NCI-H522 cells at 10^-4 to 10^-8 M after 48 hr by SRB assay; conditions: NCI-H522, 48 h, read-out: pTGI (converted)
[20] = test system: K562; test: Cytotoxicity against Homo sapiens (human) K562 cells after 48 hr by SRB assay; conditions: K562, 48 h
[21] = test system: BT-549; test: Cytotoxicity against Homo sapiens (human) BT549 cells after 48 hr by SRB assay; conditions: BT-549, 48 h
[22] = test system: HCC 2998; test: Cytotoxicity against Homo sapiens (human) HCC2998 cells after 48 hr by SRB assay; conditions: HCC 2998, 48 h
[23] = test system: UO-31; test: Cytotoxicity against Homo sapiens (human) UO31 cells at 10^-4 to 10^-8 M after 48 hr by SRB assay; conditions: UO-31, 48 h, read-out: pTGI (converted)
[24] = test system: T47D; test: Cytotoxicity against Homo sapiens (human) T47D cells after 48 hr by SRB assay
[25] = test system: UACC-62; test: Cytotoxicity against Homo sapiens (human) UACC62 cells after 48 hr by SRB assay; conditions: UACC-62, 48 h
[26] = test system: DU-145; test: Cytotoxicity against Homo sapiens (human) DU145 cells after 48 hr by SRB assay
[27] = test system: MOLT-4; test: Cytotoxicity against Homo sapiens (human) MOLT4 cells after 48 hr by SRB assay; conditions: MOLT-4, 48 h
[28] = test system: PC-3; test: Cytotoxicity against Homo sapiens (human) PC3 cells after 48 hr by SRB assay; conditions: PC-3, 48 h
[29] = test system: IGROV-1; test: Cytotoxicity against Homo sapiens (human) IGROV1 cells after 48 hr by SRB assay
[30] = test system: MCF7; test: Cytotoxicity against Homo sapiens (human) MCF7 cells after 48 hr by SRB assay; conditions: MCF7, 48 h
[31] = test system: SF-295; test: Cytotoxicity against Homo sapiens (human) SF295 cells after 48 hr by SRB assay; conditions: SF-295, 48 h
[32] = test system: TK-10; test: Cytotoxicity against Homo sapiens (human) TK10 cells after 48 hr by SRB assay; conditions: TK-10, 48 h
[33] = test system: SF-539; test: Cytotoxicity against Homo sapiens (human) SF539 cells at 10^-4 to 10^-8 M after 48 hr by SRB assay; conditions: SF-539, 48 h, read-out: pTGI (converted)
[34] = test system: NCI-H23; test: Cytotoxicity against Homo sapiens (human) NCI-H23 cells after 48 hr by SRB assay; conditions: NCI-H23, 48 h
[35] = test system: SNB-75; test: Cytotoxicity against Homo sapiens (human) SNB75 cells after 48 hr by SRB assay
[36] = test system: HL-60(TB); test: Cytotoxicity against Homo sapiens (human) HL-60(TB) cells after 48 hr by SRB assay; conditions: HL-60, 48 h
[37] = test system: HCT-116; test: Cytotoxicity against Homo sapiens (human) HCT116 cells after 48 hr by SRB assay; conditions: HCT-116, 48 h
[38] = test system: HOP-92; test: Cytotoxicity against Homo sapiens (human) HOP92 cells after 48 hr by SRB assay; conditions: HOP-92, 48 h
[39] = test system: SNB-19; test: Cytotoxicity against Homo sapiens (human) SNB19 cells after 48 hr by SRB assay
[40] = test system: MOLT-4; test: Cytotoxicity against Homo sapiens (human) MOLT4 cells assessed as cellular growth at 10^-5 M after 48 hr by SRB assay relative to untreated control
[41] = test system: RPMI-8226; test: Cytotoxicity against Homo sapiens (human) RPMI8226 cells assessed as cellular growth at 10^-5 M after 48 hr by SRB assay relative to untreated control
[42] = test system: K562; test: Cytotoxicity against Homo sapiens (human) K562 cells assessed as cellular growth at 10^-5 M after 48 hr by SRB assay relative to untreated control
[43] = test system: Malme-3M; test: Cytotoxicity against Homo sapiens (human) MALME-3M cells at 10^-4 to 10^-8 M after 48 hr by SRB assay; conditions: read-out: pTGI (converted)

With `COC(=O)[C@]12CCC(C)(C)C[C@H]1C1=CC[C@@H]3[C@@]4(C)CC/C(=N\O)C(C)(C)[C@@H]4CC[C@@]3(C)[C@]1(C)CC2` the TGI [1] was 36.3 µM, the GI50 [2] was 30.2 µM and the GI50 ([3]; Homo sapiens, RXF 393, 48 h) was 18.2 µM. It also gave a GI50 [4] of 39.8 µM, a CC50 [4] of over 100 µM and a GI50 [5] of 39.8 µM. For the same molecule, the Activity [6] was 38.63%, the GI50 ([7]; Homo sapiens, SK-OV-3, 48 h) was 40.7 µM and the GI50 [8] was 28.8 µM. The GI50 [9] was 20.4 µM, the TGI [10] was over 100 µM and the GI50 [11] was 24 µM. The GI50 [12] was 38.9 µM, the GI50 [13] was 20.9 µM and the GI50 [14] was 26.3 µM. For the same molecule, the CC50 [14] was over 100 µM, the GI50 [15] was 17.8 µM and the GI50 [16] was 34.7 µM. It also gave a CC50 [17] of over 100 µM, a GI50 [18] of 24 µM and a TGI [19] of 66.1 µM. It also gave a GI50 [20] of 37.2 µM, a GI50 [21] of 64.6 µM and a GI50 [22] of 22.9 µM. It also gave a TGI [23] of 45.7 µM, a GI50 [24] of 25.1 µM and a GI50 [25] of 22.4 µM. The GI50 ([26]; Homo sapiens, DU-145, 48 h) was 20.4 µM, the GI50 [27] was 37.2 µM and the GI50 [28] was 20.4 µM. For the same molecule, the GI50 ([29]; Homo sapiens, IGROV-1, 48 h) was 33.9 µM, the GI50 [30] was 20.4 µM and the GI50 [31] was 17.8 µM. The GI50 [32] was 33.9 µM, the TGI [33] was 41.7 µM and the GI50 [34] was 20 µM. It also gave a GI50 ([35]; Homo sapiens, SNB-75, 48 h) of 18.2 µM, a GI50 [36] of 58.9 µM and a GI50 [37] of 29.5 µM. The GI50 [38] was 19.1 µM and the GI50 ([39]; Homo sapiens, SNB-19, 48 h) was 25.7 µM.
For `COC(=O)[C@]12CCC(C)(C)C[C@H]1C1=CC[C@@H]3[C@@]4(C)CC/C(=N\OC(=O)/C=C5/SC(=O)NC5=O)C(C)(C)[C@@H]4CC[C@@]3(C)[C@]1(C)CC2`, the TGI [1] was 3.55 µM, the GI50 [3] was 6.61 µM and 1.91 µM and the GI50 [7] was 61.7 µM and 20 µM. It also gave a TGI [10] of 32.4 µM, an Activity [40] of 2.28% and an Activity [41] of 16.33%. For the same molecule, the TGI [19] was 5.62 µM, the TGI [23] was 2.95 µM and the GI50 [26] was 42.7 µM and 5.13 µM. The Activity [42] was 26.64%, the TGI [43] was 7.76 µM and the GI50 [29] was 8.91 µM and 1.91 µM. For the same molecule, the TGI [33] was 3.63 µM, the GI50 [35] was 49 µM and 10.7 µM and the GI50 [39] was 56.2 µM and 12.3 µM.
Molecule `CC1(C)CC[C@@]23CC[C@]4(C)[C@@](OC2=O)([C@@H]3C1)[C@@H](Br)C[C@@H]1[C@@]2(C)CC/C(=N\O)C(C)(C)[C@@H]2CC[C@]14C` has a GI50 [2] of 11.5 µM, a CC50 [4] of over 100 µM and a GI50 [5] of over 100 µM. It also gave an Activity [6] of 38.45%, a GI50 ([7]; Homo sapiens, SK-OV-3, 48 h) of 30.9 µM and a GI50 [8] of 17.8 µM. For the same molecule, the GI50 [9] was 17.8 µM, the TGI [10] was over 100 µM and the GI50 [11] was 27.5 µM. For the same molecule, the GI50 [12] was 8.91 µM, the GI50 [13] was 37.2 µM and the Activity [40] was 20.29%. The CC50 [14] was over 100 µM, the GI50 [15] was 49 µM and the GI50 [16] was 8.51 µM. For the same molecule, the GI50 [17] was 3.02 µM, the CC50 [17] was over 100 µM and the Activity [41] was 38.33%. The GI50 [18] was 30.9 µM, the GI50 [20] was 56.2 µM and the GI50 [21] was 9.33 µM. The GI50 [22] was 81.3 µM, the TGI [23] was over 100 µM and the GI50 [24] was 17.4 µM. For the same molecule, the GI50 [25] was 18.6 µM, the GI50 ([26]; Homo sapiens, DU-145, 48 h) was 14.1 µM and the Activity [42] was 21.17%. It also gave a GI50 [27] of 14.1 µM, a GI50 [28] of 40.7 µM and a TGI [43] of 23.4 µM. The GI50 [30] was 11.7 µM, the GI50 [31] was 14.1 µM and the GI50 [32] was 18.6 µM. It also gave a TGI [33] of over 100 µM, a GI50 [34] of 38 µM and a GI50 ([35]; Homo sapiens, SNB-75, 48 h) of 20.4 µM. The GI50 [36] was over 100 µM, the GI50 [37] was 19.1 µM and the GI50 [38] was 4.37 µM. It also gave a GI50 ([39]; Homo sapiens, SNB-19, 48 h) of 53.7 µM.
